Data published in ChEMBL document CHEMBL3243942, “Nondepressant beta-adrenergic blocking agents. 1. Substituted 3-amino-1-(5,6,7,8-tetrahydro-1-naphthoxy)-2-propanols” (J Med Chem, 1978).
In brackets after ≈: the same amount, converted by molar mass. Activity calls are given as the source filed them. The calls are words filed in the database; no cut-off is given here.

Assays:
Felis catus = species: Felis catus; experiment: Inhibition of beta-adrenergic receptor in cat papillary muscle; assay type: tissue-based
[1] = Myocardial depressant activity in cat papillary muscle assessed as decrease in contractile force at >0.31 mg/ml; assay type: ADME, tissue-based, Felis catus, Muscle tissue
Adrenergic receptor beta = Adrenergic receptor beta (Rattus norvegicus, UniProt P18090+P10608+P26255); experiment: Inhibition of beta-adrenergic receptor in rat portal vein
[2] = Myocardial depressant activity in guinea pig atrial muscle assessed as maximal non-depressant dose by measuring contractility; assay type: ADME, tissue-based, Cavia porcellus, Muscle tissue
[3] = Inhibition of beta-adrenergic receptor in isoproterenol-stimulated guinea pig atrial muscle; assay type: tissue-based, Cavia porcellus, Cardiac atrium
[4] = Myocardial depressant activity in guinea pig atrial muscle assessed as decrease in contractility at 0.31 x 10^-3 to 0.31 mg/ml; assay type: ADME, tissue-based, Cavia porcellus, Muscle tissue
[5] = Myocardial depressant activity in guinea pig atrial muscle assessed as decrease in contractility at 1.0 mg/ml; assay type: ADME, tissue-based, Cavia porcellus, Muscle tissue
[6] = Retention time of the compound; assay type: physicochemical

| Compound | Activity [2] [µg/mL] | IC50 [3] | also measured |
| --- | --- | --- | --- |
| CC(C)(C)NCC(O)COc1ccc(I)c2c1C[C@H](O)[C@H](O)C2 (relative stereo) |  |  | inhibition (Felis catus): Active; Activity [1]: Toxic |
| CC(C)(C)NCC(O)COc1cccc2c1CC=CC2 (stereo not given) | 0.3 |  | IC50 (Adrenergic receptor beta): 0.0013 µg/mL (≈ 0.00472 µM) |
| CO[C@@H]1c2c(cccc2OCC(O)CNC(C)C)CC[C@@H]1O.O=C(O)C(=O)O (relative stereo) | 10 | 0.8 µg/mL |  |
| CC(C)(C)NCC(O)COc1ccc2c(c1)C[C@@H](O)[C@@H](O)C2 (relative stereo) | > 1000 | 10 µg/mL (≈ 32.3 µM) |  |
| CC(C)N(Cc1ccccc1)CC(O)COc1cccc2c1C[C@H](O)[C@H](O)C2 (stereo not given in full) | 310 | 80 µg/mL (≈ 208 µM) |  |
| OC(CNCc1ccccc1)COc1cccc2c1C[C@H](O)[C@H](O)C2 (stereo not given in full) | 100 | 1 µg/mL (≈ 2.91 µM) |  |
| CC(C)(C)NCC(O)COc1ccc(O)c2c1CCCC2 (stereo not given) | 10 | 0.01 µg/mL (≈ 0.0341 µM) |  |
| CC(C)NCC(O)COc1cc(O)c(O)c2c1CCCC2 (stereo not given) | 100 | 0.11 µg/mL (≈ 0.372 µM) |  |
| CC(C)(C)CC(C)(C)NCC(O)COc1cccc2c1C[C@H](O)[C@H](O)C2 (stereo not given in full) | 1 |  | IC50 (Adrenergic receptor beta): 0.78 µg/mL (≈ 2.13 µM) |
| CC(C)(C)NCC(O)COc1ccc(O)c2c1C[C@@H](O)[C@@H](O)C2.Cl (relative stereo) |  | 0.086 µg/mL | inhibition (INH) [4]: 10%; Activity [5]: Non-toxic |
| CC(C)NCC(O)COc1cccc2c1CCC(O)C2.O=C(O)C(=O)O (stereo not given) | 31 | 0.002 µg/mL |  |
| CC(C)(C)[N+](C)(C)CC(O)COc1cccc2c1C[C@H](O)[C@H](O)C2.[I-] (stereo not given in full) | 1000 | 0.63 µg/mL |  |
| Oc1cccc2c1CCC=C2 |  |  | Retention_time [6]: 37 min |
| CC(C)NCC(O)COc1cccc2ccccc12 (stereo not given) [PROPRANOLOL] | 0.31 |  |  |
| CC(C)(C)NCC(O)COc1cccc2c1CCC(O)C2 (stereo not given) | 10 | 0.001 µg/mL (≈ 0.00341 µM) |  |
| CC(C)(C)NCC(O)COc1ccc2c(c1)C[C@@H](O)[C@H](O)C2 (relative stereo) | 100 | 6 µg/mL (≈ 19.4 µM) |  |
| C=CCc1ccc(OCCNCC(O)COc2cccc3c2C[C@H](O)[C@H](O)C3)c(OC)c1 (stereo not given in full) | 3.1 |  | IC50 (Adrenergic receptor beta): 1.5 µg/mL (≈ 3.38 µM) |
| CC(C)(C)NCC(O)COc1cccc2c1CC[C@@H](O)[C@@H]2O (relative stereo) | 310 | 0.02 µg/mL (≈ 0.0646 µM) |  |
| CCCCNCC(O)COc1cccc2c1C[C@H](O)[C@H](O)C2 (stereo not given in full) |  |  | IC50 (Adrenergic receptor beta): 0.44 µg/mL (≈ 1.42 µM) |
| CC(C)(C)NCC(O)COc1ccc(O)c2c1C[C@@H]1OCO[C@@H]1C2 (stereo not given in full) | 100 | 0.3 µg/mL (≈ 0.889 µM) |  |
| Cl.NCC(O)COc1ccc(O)c2c1CCCC2 (stereo not given) | 31 | 0.15 µg/mL |  |
| CC(C)NCC(O)COc1cccc2c1CC(O)CC2 (stereo not given) | 3.1 | 0.005 µg/mL (≈ 0.0179 µM) |  |
| CC(C)(C)NCC(O)COc1cccc2c1CC(O)CC2 (stereo not given) | 1 | 0.0025 µg/mL (≈ 0.00852 µM) |  |
| COc1ccccc1N1CCN(CC(O)COc2cccc3c2C[C@H](O)[C@H](O)C3)CC1 (stereo not given in full) |  |  | IC50 (Adrenergic receptor beta): 0.46 µg/mL (≈ 1.07 µM) |
| CCOc1ccccc1OCCNCC(O)COc1cccc2c1C[C@H](O)[C@H](O)C2 (stereo not given in full) | 31 | 0.31 µg/mL (≈ 0.743 µM) |  |
| COc1ccc(CCNCC(O)COc2cc(O)c(O)c3c2CCCC3)cc1OC.Cl (stereo not given) | 3.1 | 5.9 µg/mL |  |
| CO[C@@H]1c2cccc(OCC(O)CNC(C)C)c2CC[C@H]1O.O=C(O)C(=O)O (relative stereo) | 31 | 0.05 µg/mL |  |

| Compound | Activity [2] [µg/mL] | IC50 [3] | also measured |
| --- | --- | --- | --- |
| CC(C)(C)NCC(O)COc1cccc2c1C[C@H](O)[C@@H](O)C2 (relative stereo) | > 1000 | 0.015 µg/mL (≈ 0.0485 µM) |  |
| CC(C)NCC(O)COc1cccc2c1CCCC2 (stereo not given) | 1 | 0.01 µg/mL (≈ 0.038 µM) |  |
| CC(C)(C)NCC(O)COc1cccc2c1CCCC2=O (stereo not given) [BUNOLOL] | 1 | 0.006 µg/mL (≈ 0.0206 µM) |  |
| CO[C@H]1Cc2cccc(OCC(O)CNC(C)(C)C)c2C[C@H]1OC.Cl (relative stereo) | 100 |  | IC50 (Adrenergic receptor beta): 0.051 µg/mL |
| CCN(CC(O)COc1cccc2c1C[C@H](O)[C@H](O)C2)C(C)(C)C (stereo not given in full) | > 1000 |  |  |
| COc1ccc(CCNCC(O)COc2cccc3c2C[C@H](O)[C@H](O)C3)cc1OC (stereo not given in full) | > 1000 | 0.07 µg/mL (≈ 0.168 µM) |  |
| CC(O)(CNC(C)(C)C)COc1cccc2c1C[C@H](O)[C@H](O)C2 (stereo not given in full) | 31 | 16 µg/mL (≈ 49.5 µM) |  |
| CC(C)(C)NCC(O)COc1cccc2c1C[C@@H]1OCO[C@@H]1C2 (relative stereo) | 3.1 | 0.04 µg/mL (≈ 0.124 µM) |  |
| CC(C)(C)NCC(O)COc1cc(O)c(O)c2c1CCCC2 (stereo not given) | 10 | 0.1 µg/mL (≈ 0.323 µM) |  |
| CC(C)NCC(O)COc1cccc2c1C[C@H](O)[C@@H](O)C2 (relative stereo) | > 1000 | 0.05 µg/mL (≈ 0.169 µM) |  |
| CC(C)NCC(O)COc1cccc2c1CC=CC2 (stereo not given) | 1 | 0.001 µg/mL (≈ 0.00383 µM) |  |
| CC(C)NCC(O)COc1cccc2c1C[C@@H](O)[C@@H](O)C2 (relative stereo) | > 1000 | 0.1 µg/mL (≈ 0.339 µM) |  |
| CC(C)(C)N(CCNCC(O)COc1cccc2c1C[C@H](O)[C@H](O)C2)Cc1ccccc1 (stereo not given in full) | 31 |  | IC50 (Adrenergic receptor beta): > 8 µg/mL |
| CC(C)(Cc1ccccc1)NCC(O)COc1cccc2c1C[C@H](O)[C@H](O)C2 (stereo not given in full) | 3.1 |  | IC50 (Adrenergic receptor beta): 0.045 µg/mL (≈ 0.117 µM) |
| Oc1cccc2c1C=CCC2 |  |  | Retention_time [6]: 35 min |
| CC(C)NCC(O)COc1cccc2c1CCC(=O)C2 (stereo not given) | 3.1 | 0.006 µg/mL (≈ 0.0216 µM) |  |
| COc1ccc(CCNCC(O)COc2ccc(O)c3c2CCCC3)cc1OC (stereo not given) | 3.1 | 0.024 µg/mL (≈ 0.0598 µM) |  |
| OC(COc1cccc2c1C[C@H](O)[C@H](O)C2)CN1CCN(c2ccccn2)CC1 (stereo not given in full) | > 310 | Not Active |  |
| CCN(CC)CC(O)COc1cccc2c1C[C@H](O)[C@H](O)C2 (stereo not given in full) | > 1000 | 31 µg/mL (≈ 100 µM) |  |
| CC(C)NCC(O)COc1ccc(O)c2c1CCCC2 (stereo not given) | 10 | 0.004 µg/mL (≈ 0.0143 µM) |  |
| OC(CNCCc1ccccc1)COc1cccc2c1C[C@H](O)[C@H](O)C2 (stereo not given in full) | 100 | 0.5 µg/mL (≈ 1.4 µM) |  |
| CN(CC(O)COc1cccc2c1C[C@H](O)[C@H](O)C2)C(C)(C)C (stereo not given in full) | > 1000 | Not Active |  |
| Oc1cccc2c1CCCC2 |  |  | Retention_time [6]: 37.5 min |
| CC(C)NCC(O)COc1cccc2c1CC1OC1C2 (stereo not given) | 31 | 0.012 µg/mL (≈ 0.0433 µM) |  |
| Cl.NCC(O)COc1cccc2c1C[C@H](O)[C@H](O)C2 (stereo not given in full) | > 1000 | 3.8 µg/mL |  |
| CC(C)(C)NCC(O)COc1cccc2c1C[C@@H](O)[C@@H](O)C2 (relative stereo) | > 1000 | 0.03 µg/mL (≈ 0.097 µM) |  |
